pIC50: −log10 of the molar value.
Tests used:
[1] = tested on: Na^+/K^+-ATPase (adenosine 5′-triphosphatase from porcine cerebral cortex); test: Na+/K+-ATPase activity assay; type: biochemical; conditions: 7: at concentrations less than 100 μM
[2] = tested on: glucose uptake in H1299 human lung cancer cells; test: Glucose uptake assay; type: cell-based; conditions: 30 μM, 15 min
[3] = tested on: small panel of human cancer cell lines; conditions: read-out: IC50, cytotoxicity against a small panel of human cancer cell lines; cited from earlier work
ipsilateral kidney = conditions: 12–27 kg female dogs, renal-artery infusion, 0.05–0.08 mg/kg; cited from earlier work

**Q.** Which “inhibition of Na+/K+-ATPase activity (in words)” value [1] does the source give for C[C@H]1O[C@@H](O[C@H]2[C@@H](O)C[C@H](O[C@H]3[C@@H](O)C[C@H](O[C@H]4CC[C@@]5(C)[C@H](CC[C@@H]6[C@@H]5C[C@@H](O)[C@]5(C)[C@@H](C7=CC(=O)OC7)CC[C@]65O)C4)O[C@@H]3C)O[C@@H]2C)C[C@H](O)[C@@H]1O [compound 1, (+)-Digoxin] here?
**A.** inhibited Na^+/K^+-ATPase activity in a concentration-dependent manner

**Q.** What about the “inhibition of glucose uptake / glucose transport (in words)” value [2] of the same molecule?
**A.** did not inhibit glucose uptake

**Q.** And the “inhibition of glucose uptake / glucose transport (in words)” value ([2]; listed as (+)-digoxin)?
**A.** did not inhibit glucose transport

**Q.** What about the pIC50 [3] of the same molecule?
**A.** 6.70 to 7.40

**Q.** What about the “excretion of Ca2+, Mg2+, and PO4 3- by the ipsilateral kidney (in words)” value (ipsilateral kidney) of the same molecule?
**A.** enhanced

**Q.** What about the “maximal transport of glucose (in words)” value (ipsilateral kidney) of the same molecule?
**A.** no change in the maximal transport of glucose

— paper PMC7243443 (Journal of natural products, 2020)
